Starred links: 1 amine or outer side, 2 acyl side, 3 side chain; linkers in the order of their positions; H or OH if unused. Positions of bridges follow the written chain, without caps; N, C: chain ends. Residues, ends and D or L forms follow the SMILES beside them. Groups on a side chain read outwards from the residue. *: point of attachment. X3 = O=C(O)CCCCCCCCCCCCCCCCCCC(=O)N[C@@H](CCC(=O)NCOCCOCC(=O)NCOCCOCC(=O)*)C(=O)O; C18 diacid = O=C(O)CCCCCCCCCCCCCCCCC(=O)*; C17 diacid = O=C(O)CCCCCCCCCCCCCCCC(=O)*; C16 diacid = O=C(O)CCCCCCCCCCCCCCC(=O)*; γGlu = O=C(O)[C@H](CCC(=O)[*:2])N[*:1]
Assay: in vivo
Design: species or system Sprague-Dawley rats
Conditions: rat, iv, 0.033 mg/kg
How it was run: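 Male Sprague-Dawley rats, non-fasted (n=3), given peptide in saline as 1-h IV or SC infusion at 0.033 mg/kg, or SC bolus at 0.3 mg/kg; jugular blood to 48 h into K2EDTA plus protease inhibitors. Plasma extracted by precipitation or WCX solid-phase extraction, quantified by UPLC-MS/MS against standards in matching rat plasma.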

Row | Vd [L/kg] | clearance [mL/min/kg] | half-life [h] | SMILES | Vd (male, Sprague-Dawley) [L/kg] | clearance (male, Sprague-Dawley) [mL/min/kg] | half-life (male, Sprague-Dawley) [h]
1 |  |  |  | CC[C@H](C)[C@H](NC(=O)[C@@H]1CCCN1C(=O)CNC(=O)[C@H](Cc1ccccc1)NC(=O)[C@H](CC(N)=O)NC(=O)[C@H](CC(N)=O)NC(=O)[C@H](CO)NC(=O)[C@H](CO)NC(=O)[C@H](CCCCN)NC(=O)[C@H](Cc1c[nH]cn1)NC(=O)[C@H](CCCCNC(=O)CC[C@H](NC(=O)CCCCCCCCCCCCCCCCC(=O)O)C(=O)O)NC(=O)[C@H](CCC(=O)O)NC(=O)[C@H](CC(N)=O)NC(=O)[C@H](C)NC(=O)[C@H](CC(C)C)NC(=O)[C@H](CCCNC(=N)N)NC(=O)[C@H](CCC(N)=O)NC(=O)[C@@H](NC(=O)[C@H](C)NC(=O)[C@@H]1CSSC[C@H](NC(=O)[C@@H](N)CO)C(=O)N[C@@H](CC(N)=O)C(=O)N[C@@H]([C@@H](C)O)C(=O)N[C@@H](CO)C(=O)N[C@@H]([C@@H](C)O)C(=O)N1)[C@@H](C)O)C(=O)N[C@@H](CC(C)C)C(=O)N1CCC[C@H]1C(=O)N1CCC[C@H]1C(=O)N[C@H](C(=O)N[C@@H](CCCCN)C(=O)N[C@H](C(=O)NCC(=O)N[C@@H](CO)C(=O)N[C@@H](CCC(=O)O)C(=O)N[C@H](C(=O)N[C@@H](Cc1ccc(O)cc1)C(N)=O)[C@@H](C)O)C(C)C)[C@@H](C)O [Compound A76] (H-SCNTSTCATQRLANEK([γGlu-C18 diacid])HKSSNNFGPILPPTKVGSETY-NH2; disulfide 2-7; N-terminus assumed) | 0.176 | 0.105 | 21.3
2 |  |  |  | CC[C@H](C)[C@H](NC(=O)[C@@H]1CCCN1C(=O)CNC(=O)[C@H](Cc1ccccc1)NC(=O)[C@H](CC(N)=O)NC(=O)[C@H](CC(N)=O)NC(=O)[C@H](CO)NC(=O)[C@H](CO)NC(=O)[C@H](CCCCN)NC(=O)[C@H](Cc1c[nH]cn1)NC(=O)[C@H](CCCCNC(=O)CCCCCCCCCCCCCCCC(=O)O)NC(=O)[C@H](CCC(=O)O)NC(=O)[C@H](CC(N)=O)NC(=O)[C@H](C)NC(=O)[C@H](CC(C)C)NC(=O)[C@H](CCCNC(=N)N)NC(=O)[C@H](CCC(N)=O)NC(=O)[C@@H](NC(=O)[C@H](C)NC(=O)[C@@H]1CSSC[C@H](NC(=O)[C@@H](N)CO)C(=O)N[C@@H](CC(N)=O)C(=O)N[C@@H]([C@@H](C)O)C(=O)N[C@@H](CO)C(=O)N[C@@H]([C@@H](C)O)C(=O)N1)[C@@H](C)O)C(=O)N[C@@H](CC(C)C)C(=O)N1CCC[C@H]1C(=O)N1CCC[C@H]1C(=O)N[C@H](C(=O)N[C@@H](CCCCN)C(=O)N[C@H](C(=O)NCC(=O)N[C@@H](CO)C(=O)N[C@@H](CCC(=O)O)C(=O)N[C@H](C(=O)N[C@@H](Cc1ccc(O)cc1)C(N)=O)[C@@H](C)O)C(C)C)[C@@H](C)O [Compound A79] (H-SCNTSTCATQRLANEK(C17 diacid)HKSSNNFGPILPPTKVGSETY-NH2; disulfide 2-7; N-terminus assumed) | 0.115 | 0.162 | 7.8
3 | 0.152 | 0.667 | 3.17 | CC[C@H](C)[C@H](NC(=O)[C@@H]1CCCN1C(=O)CNC(=O)[C@H](Cc1ccccc1)NC(=O)[C@H](CC(N)=O)NC(=O)[C@H](CC(N)=O)NC(=O)[C@H](CO)NC(=O)[C@H](CO)NC(=O)[C@H](CCCCN)NC(=O)[C@H](Cc1c[nH]cn1)NC(=O)[C@H](CC(C)C)NC(=O)[C@H](CCCCNC(=O)CC[C@H](NC(=O)CC[C@H](NC(=O)CCCCCCCCCCCCCCC(=O)O)C(=O)O)C(=O)O)NC(=O)[C@H](CC(N)=O)NC(=O)[C@H](C)NC(=O)[C@H](CC(C)C)NC(=O)[C@H](CCCNC(=N)N)NC(=O)[C@H](CCC(N)=O)NC(=O)[C@@H](NC(=O)[C@H](C)NC(=O)[C@@H]1CSSC[C@H](NC(=O)[C@@H](N)CO)C(=O)N[C@@H](CC(N)=O)C(=O)N[C@@H]([C@@H](C)O)C(=O)N[C@@H](CO)C(=O)N[C@@H]([C@@H](C)O)C(=O)N1)[C@@H](C)O)C(=O)N[C@@H](CC(C)C)C(=O)N1CCC[C@H]1C(=O)N1CCC[C@H]1C(=O)N[C@H](C(=O)N[C@@H](CCCCN)C(=O)N[C@H](C(=O)NCC(=O)N[C@@H](CO)C(=O)N[C@@H](CCC(=O)O)C(=O)N[C@H](C(=O)N[C@@H](Cc1ccc(O)cc1)C(N)=O)[C@@H](C)O)C(C)C)[C@@H](C)O [Compound A82] (H-SCNTSTCATQRLANK([γGlu-γGlu-C16 diacid])LHKSSNNFGPILPPTKVGSETY-NH2; disulfide 2-7) |  |  | 
4 | 0.146 | 0.0496 | 36.7 | CC[C@H](C)[C@H](NC(=O)[C@@H]1CCCN1C(=O)CNC(=O)[C@H](Cc1ccccc1)NC(=O)[C@H](CC(N)=O)NC(=O)[C@H](CC(N)=O)NC(=O)[C@H](CO)NC(=O)[C@H](CO)NC(=O)[C@H](CCCCN)NC(=O)[C@H](Cc1c[nH]cn1)NC(=O)[C@H](CC(C)C)NC(=O)[C@H](CCCCNC(=O)CC[C@H](NC(=O)CC[C@H](NC(=O)COCCOCNC(=O)COCCOCNC(=O)CC[C@H](NC(=O)CCCCCCCCCCCCCCCCCCC(=O)O)C(=O)O)C(=O)O)C(=O)O)NC(=O)[C@H](Cc1ccc(O)cc1)NC(=O)[C@H](C)NC(=O)[C@H](CC(C)C)NC(=O)[C@H](CCCNC(=N)N)NC(=O)[C@H](CCC(N)=O)NC(=O)[C@@H](NC(=O)[C@H](C)NC(=O)[C@@H]1CSSC[C@H](NC(=O)[C@@H](N)CO)C(=O)N[C@@H](CC(N)=O)C(=O)N[C@@H]([C@@H](C)O)C(=O)N[C@@H](CO)C(=O)N[C@@H]([C@@H](C)O)C(=O)N1)[C@@H](C)O)C(=O)N[C@@H](CC(C)C)C(=O)N1CCC[C@H]1C(=O)N1CCC[C@H]1C(=O)N[C@H](C(=O)N[C@@H](CCCCN)C(=O)N[C@H](C(=O)NCC(=O)N[C@@H](CO)C(=O)N[C@@H](CCC(=O)O)C(=O)N[C@H](C(=O)N[C@@H](Cc1ccc(O)cc1)C(N)=O)[C@@H](C)O)C(C)C)[C@@H](C)O [Compound A85] (H-SCNTSTCATQRLAYK([γGlu-γGlu-X3])LHKSSNNFGPILPPTKVGSETY-NH2; disulfide 2-7; N-terminus assumed) |  |  | 
5 | 0.143 | 0.108 | 17.7 | CC[C@H](C)[C@H](NC(=O)[C@@H]1CCCN1C(=O)CNC(=O)[C@H](Cc1ccccc1)NC(=O)[C@H](CC(N)=O)NC(=O)[C@H](CC(N)=O)NC(=O)[C@H](CO)NC(=O)[C@H](CO)NC(=O)[C@H](CCCCN)NC(=O)[C@H](Cc1c[nH]cn1)NC(=O)[C@H](CC(C)C)NC(=O)[C@H](CCCCNC(=O)CC[C@H](NC(=O)CC[C@H](NC(=O)CCCCCCCCCCCCCCCCC(=O)O)C(=O)O)C(=O)O)NC(=O)[C@H](CC(N)=O)NC(=O)[C@H](C)NC(=O)[C@H](CC(C)C)NC(=O)[C@H](CCCNC(=N)N)NC(=O)[C@H](CCC(N)=O)NC(=O)[C@@H](NC(=O)[C@H](C)NC(=O)[C@@H]1CSSC[C@H](NC(=O)[C@@H](N)CO)C(=O)N[C@@H](CC(N)=O)C(=O)N[C@@H]([C@@H](C)O)C(=O)N[C@@H](CO)C(=O)N[C@@H]([C@@H](C)O)C(=O)N1)[C@@H](C)O)C(=O)N[C@@H](CC(C)C)C(=O)N1CCC[C@H]1C(=O)N1CCC[C@H]1C(=O)N[C@H](C(=O)N[C@@H](CCCCN)C(=O)N[C@H](C(=O)NCC(=O)N[C@@H](CO)C(=O)N[C@@H](CCC(=O)O)C(=O)N[C@H](C(=O)N[C@@H](Cc1ccc(O)cc1)C(N)=O)[C@@H](C)O)C(C)C)[C@@H](C)O [Compound A87] (H-SCNTSTCATQRLANK([γGlu-γGlu-C18 diacid])LHKSSNNFGPILPPTKVGSETY-NH2; disulfide 2-7) |  |  | 

Row | SMILES | Vd [L/kg] | clearance [mL/min/kg] | half-life [h] | Vd (male, Sprague-Dawley) [L/kg] | clearance (male, Sprague-Dawley) [mL/min/kg] | half-life (male, Sprague-Dawley) [h]
6 | CC[C@H](C)[C@H](NC(=O)[C@@H]1CCCN1C(=O)CNC(=O)[C@H](Cc1ccccc1)NC(=O)[C@H](CC(N)=O)NC(=O)[C@H](CC(N)=O)NC(=O)[C@H](CO)NC(=O)[C@H](CO)NC(=O)[C@H](CCCCN)NC(=O)[C@H](Cc1c[nH]cn1)NC(=O)[C@H](CC(C)C)NC(=O)[C@H](CCCCNC(=O)CCCCCCCCCCCCCCCCC(=O)O)NC(=O)[C@H](CC(N)=O)NC(=O)[C@H](C)NC(=O)[C@H](CC(C)C)NC(=O)[C@H](CCCNC(=N)N)NC(=O)[C@H](CCC(N)=O)NC(=O)[C@@H](NC(=O)[C@H](C)NC(=O)[C@@H]1CSSC[C@H](NC(=O)[C@@H](N)CO)C(=O)N[C@@H](CC(N)=O)C(=O)N[C@@H]([C@@H](C)O)C(=O)N[C@@H](CO)C(=O)N[C@@H]([C@@H](C)O)C(=O)N1)[C@@H](C)O)C(=O)N[C@@H](CC(C)C)C(=O)N1CCC[C@H]1C(=O)N1CCC[C@H]1C(=O)N[C@H](C(=O)N[C@@H](CCCCN)C(=O)N[C@H](C(=O)NCC(=O)N[C@@H](CO)C(=O)N[C@@H](CCC(=O)O)C(=O)N[C@H](C(=O)N[C@@H](Cc1ccc(O)cc1)C(N)=O)[C@@H](C)O)C(C)C)[C@@H](C)O [Compound A83] (H-SCNTSTCATQRLANK(C18 diacid)LHKSSNNFGPILPPTKVGSETY-NH2; disulfide 2-7) | 0.123 | 0.499 | 4.06 |  |  | 
7 | CC[C@H](C)[C@H](NC(=O)[C@@H]1CCCN1C(=O)CNC(=O)[C@H](Cc1ccccc1)NC(=O)[C@H](CC(N)=O)NC(=O)[C@H](CC(N)=O)NC(=O)[C@H](CO)NC(=O)[C@H](CO)NC(=O)[C@H](CCCCN)NC(=O)[C@H](Cc1c[nH]cn1)NC(=O)[C@H](CCCCNC(=O)CCCCCCCCCCCCCCC(=O)O)NC(=O)[C@H](CCC(=O)O)NC(=O)[C@H](CC(N)=O)NC(=O)[C@H](C)NC(=O)[C@H](CC(C)C)NC(=O)[C@H](CCCNC(=N)N)NC(=O)[C@H](CCC(N)=O)NC(=O)[C@@H](NC(=O)[C@H](C)NC(=O)[C@@H]1CSSC[C@H](NC(=O)[C@@H](N)CO)C(=O)N[C@@H](CC(N)=O)C(=O)N[C@@H]([C@@H](C)O)C(=O)N[C@@H](CO)C(=O)N[C@@H]([C@@H](C)O)C(=O)N1)[C@@H](C)O)C(=O)N[C@@H](CC(C)C)C(=O)N1CCC[C@H]1C(=O)N1CCC[C@H]1C(=O)N[C@H](C(=O)N[C@@H](CCCCN)C(=O)N[C@H](C(=O)NCC(=O)N[C@@H](CO)C(=O)N[C@@H](CCC(=O)O)C(=O)N[C@H](C(=O)N[C@@H](Cc1ccc(O)cc1)C(N)=O)[C@@H](C)O)C(C)C)[C@@H](C)O [Compound A86] (H-SCNTSTCATQRLANEK(C16 diacid)HKSSNNFGPILPPTKVGSETY-NH2; disulfide 2-7) | 0.0936 | 0.297 | 4.65 |  |  | 

— patent US12018059B2, “Human amylin analog polypeptides and methods of use” (Intarcia Therapeutics, Inc., priority 2018, dated 2024)
